Experimental data reported in US20090263339A1, “AGENT FOR EXTERNAL APPLICATION TO THE SKIN” (KABUSHIKI KAISHA HAYASHIBARA SEIBUTSU KAGAKU KENKY, priority 2005, published 2009).
Values after ≈ are worked out from the molar mass of the structure shown. Where two headings read alike, the source gives them in different places.

How the values were obtained:
[1] = test system: B16 melanoma cells of mouse; test: Effect of indigo-plant extract and other skin-whitening ingredient on melanin production (Experiment 2); format: cell-based; parameters: Efficacy with 1.25% of indigo-plant extract: key: −: Not changed; ±: Slightly suppressing blackening; +: Moderately suppressing blackening; ++: Significantly suppressing blackening; +++: Completely suppressing blackening; details: for Efficacy with 1.25% of indigo-plant extract: 72 hours; for Efficacy without indigo-plant extract: cultured 72 hours; as to Efficacy without indigo-plant extract: key: −: Not changed; ±: Slightly suppressing blackening; +: Moderately suppressing blackening; ++: Significantly suppressing blackening; +++: Completely suppressing blackening
Method: The criterion for evaluation of blackening:
The following experiment was carried out to investigate the skin-whitening effect of indigo-plant extract and other skin-whitening ingredient. After B16 melanoma cells of mouse were cultured for 24 hours, the test samples were added to the medium alone or along with 1.25% of the indigo-plant extract to give the concentrations described in Table 2, the cells were cultured for additional 72 hours. After the number of the living cells was counted, a color of the cells packed in capillary was observed. The effect was evaluated on the same criterion in Experiment 1. When the experiment was conducted using 1.25% of the indigo-plant extract, the effect was evaluated as “+”.

[2] = test system: A. actinomycetemcomitans; test: MIC to dental bacteria, agar plate dilution; format: cell-based, Actinobacillus actinomycetemcomitans; details: Aggregatibacter actinomycetemcomitans
Method: (§1) The following experiment was carried out to investigate the effect of indigo-plant extract on human dental bacteria. Two parts by weight of shredded whole indigo plant was added with three parts by weight of purified water and stirred at a room temperature for 10 minutes to prepare the extract. The supernatant obtained by centrifugation was autoclaved at 120° C. for 20 minutes. After autoclaved, the supernatant obtained by centrifugation was filtrated to give an indigo-plant extract (solid content of 1.41%). The minimum inhibitory concentration (hereinafter, occasionally abbreviated as “MIC”) of the extract to dental bacteria (periodontal disease bacteria and caries bacteria) was determined. Also MIC of tryptanthrin, gallic acid and caffeic acid, which are found to be contained in the indigo-plant extract to dental bacteria. The measurement of MIC was conducted by the method described below.
(§2) MIC of the indigo-plant extract, tirptanthrin, gallic acid and caffeic acid was determined according to the standard method of Japanese Society of Chemotherapy (q.v. “Saikin-Shinkin Kensa” (Second edition), issued by Japan Public Health Association, pp. 524-529 (1982)). For periodontal disease bacteria, Prophyromonas gingivalis JCM8525, JCM12257 and ATCC33277, Actinobacillus actinomycetemcomitans (hereinafter, occasionally abbreviated as “A. actinomycetemcomitans”) JCM2434 and JCM8577, Prevotella intermedia (hereinafter, occasionally abbreviated as “P. intermedia”) JCM7365, and Campylobacter rectus (hereinafter, occasionally abbreviated as “C. rectus”) JCM6301 were used. For caries bacteria, Streptococcus mutans OMZ-175, OMZ-176, OMZ-65, OMZ-61, B-13D and Ingbritt, and Streptococcus sorbrinus (hereinafter, occasionally abbreviated as “S. sorbrinus”) 6715 were used. These bacteria were anaerobically cultured in Brain Heart Infusion medium (commercialized by Difco Laboratories Inc., hereinafter abbreviated as “BHI”) at 37° C. for 48 hours for periodontal disease bacteria or for 18 to 24 hours for caries bacteria. The broth of periodontal disease bacteria and caries bacteria was diluted to give the bacteria suspensions containing 10^8 cells/ml and 10^6 cells/ml, respectively. Five μl of any one of these suspension was inoculated on BHI agar plate containing various concentration of the indigo-plant extract, tryptanthrin, gallic acid or caffeic acid and anaerobically cultured at 37° C. for 24 hours.

[3] = test system: C. rectus; test: MIC to dental bacteria, agar plate dilution; format: cell-based; details: Campylobacter rectus, read-out: Minimum Inhibitory Concentration (MIC)
Method: as §1, §2

[4] = test system: P. intermedia; test: MIC to dental bacteria, agar plate dilution; format: cell-based; details: Prevotella intermedia, read-out: Minimum Inhibitory Concentration (MIC)
Method: as §1, §2

[5] = test system: S. mutans; test: MIC to dental bacteria, agar plate dilution; format: cell-based; details: Streptococcus mutans
Method: as §1, §2

[6] = test system: S. sobrinus; test: MIC to dental bacteria, agar plate dilution; format: cell-based, Streptococcus sorbrinus; details: Streptococcus sobrinus, read-out: Minimum Inhibitory Concentration (MIC)
Method: as §1
MIC of the indigo-plant extract, tirptanthrin, gallic acid and caffeic acid was determined according to the standard method of Japanese Society of Chemotherapy (q.v. “Saikin-Shinkin Kensa” (Second edition), issued by Japan Public Health Association, pp. 524-529 (1982)). For periodontal disease bacteria, Prophyromonas gingivalis JCM8525, JCM12257 and ATCC33277, Actinobacillus actinomycetemcomitans (hereinafter, occasionally abbreviated as “A. actinomycetemcomitans”) JCM2434 and JCM8577, Prevotella intermedia (hereinafter, occasionally abbreviated as “P. intermedia”) JCM7365, and Campylobacter rectus (hereinafter, occasionally abbreviated as “C. rectus”) JCM6301 were used. For caries bacteria, Streptococcus mutans OMZ-175, OMZ-176, OMZ-65, OMZ-61, B-13D and Ingbritt, and Streptococcus sorbrinus (hereinafter, occasionally abbreviated as “S. sorbrinus”) 6715 were used. These bacteria were anaerobically cultured in Brain Heart Infusion medium (commercialized by Difco Laboratories Inc., hereinafter abbreviated as “BHI”) at 37° C. for 48 hours for periodontal disease bacteria or for 18 to 24 hours for caries bacteria. […]

[7] = test system: dental bacteria (periodontal disease bacteria and caries bacteria); test: MIC to dental bacteria, summary over all strains; format: cell-based
Method: as §1
MIC of the indigo-plant extract, tirptanthrin, gallic acid and caffeic acid was determined according to the standard method of Japanese Society of Chemotherapy (q.v. “Saikin-Shinkin Kensa” (Second edition), issued by Japan Public Health Association, pp. 524-529 (1982)). […]

[8] = test system: A. actinomycetemcomitans; test: MIC to dental bacteria, agar plate dilution; format: cell-based, Actinobacillus actinomycetemcomitans; details: Aggregatibacter actinomycetemcomitans; remark: listed apart in the source
[9] = test system: B16 melanoma cells of mouse; test: Effect of polygonaceous plant extracts on melanin production, blackening of cells (Experiment 1); format: cell-based; as to Efficacy (suppression of blackening of cells): key: −: Not changed; ±: Slightly suppressing blackening; +: Moderately suppressing blackening; ++: Significantly suppressing blackening; +++: Completely suppressing blackening
Method: The following experiment was carried out to investigate the effect of extract of polygonaceous plants on melanin production. After 2.2×10^5 of B16 melanoma cells of mouse were cultured by conventional method for 24 hours, the medium was added with indigo-plant extract to give a concentration of 1.25% or 2.5%, then they were cultured for additional 72 hours. After the number of the living cells was counted, color of the cells packed in capillary was observed. Using a medium added with any one of the extract of Japanese knotweed, buckwheat and knotgrass prepared by the same method of Example 1 described later to give a concentration of 2.5%, or added with koji acid to give a concentration of 2.5 mM as control, the B16 melanoma cells were cultured by the same manner as using indigo-plant extract. Then the colors of the cells were observed by the same manner as using indigo-plant extract. The degree of blackening of B16 melanoma cells was evaluated by the criterion described below.

[10] = test system: B16 melanoma cells; test: Cytotoxicity to B16 melanoma cells; format: cell-based, mouse; details: 0.5 μg/ml
[11] = content 3.0% together with 1.25% indigo-plant extract
[12] = strain JMC2434, read-out: Minimum Inhibitory Concentration (MIC)
[13] = strain JMC8577, read-out: Minimum Inhibitory Concentration (MIC)
[14] = strain B-13D, read-out: Minimum Inhibitory Concentration (MIC)
[15] = strain Ingbritt, read-out: Minimum Inhibitory Concentration (MIC)
[16] = strain OMZ-61, read-out: Minimum Inhibitory Concentration (MIC)
[17] = strain OMZ-65, read-out: Minimum Inhibitory Concentration (MIC)
[18] = strain OMZ-175, read-out: Minimum Inhibitory Concentration (MIC)
[19] = strain OMZ-176, read-out: Minimum Inhibitory Concentration (MIC)
[20] = strain JMC8525, read-out: Minimum Inhibitory Concentration (MIC)
[21] = strain JMC12257, read-out: Minimum Inhibitory Concentration (MIC)
[22] = strain JMC33277, read-out: Minimum Inhibitory Concentration (MIC)
[23] = content 0.5% together with 1.25% indigo-plant extract
[24] = content 1.0% together with 1.25% indigo-plant extract

CCCCc1ccc(O)cc1O [4-n-Butylresorcinol]
Efficacy with 1.25% of indigo-plant extract [1, 11]: +++
Efficacy without indigo-plant extract ([1]; content 3.0%): +

OC[C@H]1O[C@@H](Oc2ccc(O)cc2)[C@H](O)[C@@H](O)[C@@H]1O [Arbutin, hydroquinone-β-D-glucoside]
Efficacy with 1.25% of indigo-plant extract ([1]; content 5.0% together with 1.25% indigo-plant extract): +++
Efficacy without indigo-plant extract ([1]; content 5.0%): +

O=C(O)/C=C/c1ccc(O)c(O)c1 [Caffeic acid, caffeic acid]
MIC [2, 12]: 400 µg/mL (≈ 2220 µM)
MIC [2, 13]: 200 µg/mL (≈ 1110 µM)
MIC ([3]; strain JMC6301): 100 µg/mL (≈ 555 µM)
MIC ([4]; strain JMC7365): 400 µg/mL (≈ 2220 µM)
MIC [5, 14]: 200 µg/mL (≈ 1110 µM)
MIC [5, 15]: 1600 µg/mL (≈ 8880 µM)
MIC [5, 16]: 400 µg/mL (≈ 2220 µM)
MIC [5, 17]: 200 µg/mL (≈ 1110 µM)
MIC [5, 18]: 400 µg/mL (≈ 2220 µM)
MIC [5, 19]: 800 µg/mL (≈ 4440 µM)
MIC ([6]; strain 6715): 800 µg/mL (≈ 4440 µM)
Antimicrobial activity (in words) [7]: no antimicrobial activity
MIC [8, 20]: 400 µg/mL (≈ 2220 µM)
MIC [8, 21]: 400 µg/mL (≈ 2220 µM)
MIC [8, 22]: 400 µg/mL (≈ 2220 µM)

O=c1oc2c(O)c(O)cc3c(=O)oc4c(O)c(O)cc1c4c23 [Ellagic acid]
Efficacy with 1.25% of indigo-plant extract [1, 23]: ++
Efficacy without indigo-plant extract ([1]; content 0.5%): ±

O=C(O)c1cc(O)c(O)c(O)c1 [Gallic acid, gallic acid]
MIC [2, 12]: 800 µg/mL (≈ 4700 µM)
MIC [2, 13]: 800 µg/mL (≈ 4700 µM)
MIC ([3]; strain JMC6301): 400 µg/mL (≈ 2350 µM)
MIC ([4]; strain JMC7365): 400 µg/mL (≈ 2350 µM)
MIC [5, 14]: 200 µg/mL (≈ 1180 µM)
MIC [5, 15]: 1600 µg/mL (≈ 9410 µM)
MIC [5, 16]: 200 µg/mL (≈ 1180 µM)
MIC [5, 17]: 1600 µg/mL (≈ 9410 µM)
MIC [5, 18]: 400 µg/mL (≈ 2350 µM)
MIC [5, 19]: 400 µg/mL (≈ 2350 µM)
MIC ([6]; strain 6715): 800 µg/mL (≈ 4700 µM)
MIC [8, 20]: 400 µg/mL (≈ 2350 µM)
MIC [8, 21]: 400 µg/mL (≈ 2350 µM)
MIC [8, 22]: 400 µg/mL (≈ 2350 µM)

CCCCC/C=C\C/C=C\CCCCCCCC(=O)O [Linoleic acid]
Efficacy with 1.25% of indigo-plant extract [1, 23]: ++
Efficacy without indigo-plant extract ([1]; content 0.5%): ±

COc1ccc(C(=O)[O-])c(O)c1.[K+] [Potassium 4-methoxysalicylate]
Efficacy with 1.25% of indigo-plant extract [1, 24]: +++
Efficacy without indigo-plant extract ([1]; content 1.0%): +

O=C1O[C@H]([C@@H](O)CO)C([O-])=C1O.[Na+] [Sodium L-ascorbate]
Efficacy with 1.25% of indigo-plant extract [1, 11]: +++
Efficacy without indigo-plant extract ([1]; content 3.0%): +

COc1cc(CCC(=O)CC(=O)CCc2ccc(O)c(OC)c2)ccc1O [Tetrahydrocurcumin]
Efficacy with 1.25% of indigo-plant extract [1, 23]: ++
Efficacy without indigo-plant extract ([1]; content 0.5%): ±

NC[C@H]1CC[C@H](C(=O)O)CC1 [Tranexamic acid]
Efficacy with 1.25% of indigo-plant extract [1, 24]: ++
Efficacy without indigo-plant extract ([1]; content 1.0%): ±

O=c1cc(CO)occ1O [koji acid]
Efficacy (suppression of blackening of cells) ([9]; medium containing 2.5 mM, cultured 72 hours): +
Efficacy with 1.25% of indigo-plant extract [1, 24]: +++
Efficacy without indigo-plant extract ([1]; content 1.0%): +

O=C1c2ccccc2-n2c1nc1ccccc1c2=O [tryptanthrin]
Melanin production ([9]; 0.5 μg/ml or more used instead of the indigo-plant extract): melanin production was suppressed although the effect was lower than the one of indigo-plant extract
Cytotoxicity [10]: no cytotoxity to B16 melanoma cells was observed
MIC ([2]; read-out: Minimum Inhibitory Concentration (MIC), strain JMC2434): 25 µg/mL (≈ 101 µM)
MIC ([2]; read-out: Minimum Inhibitory Concentration (MIC), strain JMC8525): 6.25 µg/mL (≈ 25.2 µM)
MIC ([2]; read-out: Minimum Inhibitory Concentration (MIC), strain JMC8577): 25 µg/mL (≈ 101 µM)
MIC [3]: 25 µg/mL (≈ 101 µM)
MIC [4]: 6.25 µg/mL (≈ 25.2 µM)
MIC ([5]; read-out: Minimum Inhibitory Concentration (MIC), strain B-13D): 6.25 µg/mL (≈ 25.2 µM)
MIC ([5]; read-out: Minimum Inhibitory Concentration (MIC), strain Ingbritt): 25 µg/mL (≈ 101 µM)
MIC ([5]; read-out: Minimum Inhibitory Concentration (MIC), strain OMZ-61): 6.25 µg/mL (≈ 25.2 µM)
MIC ([5]; read-out: Minimum Inhibitory Concentration (MIC), strain OMZ-65): 12.5 µg/mL (≈ 50.4 µM)
MIC ([5]; read-out: Minimum Inhibitory Concentration (MIC), strain OMZ-175): 6.25 µg/mL (≈ 25.2 µM)
MIC ([5]; read-out: Minimum Inhibitory Concentration (MIC), strain OMZ-176): 12.5 µg/mL (≈ 50.4 µM)
MIC [6]: 25 µg/mL (≈ 101 µM)
MIC ([8]; read-out: Minimum Inhibitory Concentration (MIC), strain JMC12257): 12.5 µg/mL (≈ 50.4 µM)
MIC ([8]; read-out: Minimum Inhibitory Concentration (MIC), strain JMC33277): 12.5 µg/mL (≈ 50.4 µM)
